Earlier results as cited in patent publication US20060009509A1, “Progesterone receptor antagonists, contraceptive regimens, and kits” (Wyeth, priority 2004, published 2006).
Like-named read-outs stand apart in the source and are kept apart here.

Test system: women

For `CC#C[C@]1(O)CC[C@H]2[C@@H]3CCC4=CC(=O)CCC4=C3[C@@H](c3ccc(N(C)C)cc3)C[C@@]21C` [mifepristone], the “women who ovulated at least once” value (1 mg daily, 3-month treatment (Croxatto 1998)) is listed as 14 of 21, the “ovulations, % of cycles” value (2 mg continuous, 4 months, Edinburgh site (Brown 2002)) is listed as 9.6% and the “ovulations, % of cycles” value (2 mg continuous, Shanghai site (Brown 2002)) is listed as 2.5%. For the same compound, the “ovulations, % of cycles” value (5 mg continuous, 4 months, Edinburgh site (Brown 2002)) was 5.2%, the “ovulations, % of cycles” value (5 mg continuous, Shanghai site (Brown 2002)) was 1.2% and the prevention of ovulation (continuous dose of 1 mg, study of 11 subjects (Batista 1992)) was “appeared to prevent ovulation”. For the same compound, the prevention of ovulation (continuous dose of 1 mg, study with 5 subjects (Croxatto 1993)) was “not” and the prevention of ovulation (continuous low doses 2-10 mg, one treatment cycle, about 5 subjects per dose group (Spitz 1993; Ledger 1992)) was “prevent ovulation”.
